Reference: US20230097603A1, “NICOTINAMIDE MONONUCLEOTIDE DERIVATIVES FOR THE TREATMENT OF ARRHYTHMIA” (NUVAMID SA, priority 2020, published 2023)
Entries after “also recorded” stand apart in the source; their conditions may differ.

What was measured:
[1] = test system: arrhythmias induced by doxorubicin; test: Arrhythmia induced by doxorubicin in mice, heart rate by ECG; format: in vivo; settings: for heart rate 5 days after the injection of DOX (effect in words): vs DOX + carrier
Protocol: The goal of this study was to evaluate the effects of an i.p. administration of compounds I-C, I-J and I-K, at 180 mg/kg, on arrhythmias induced by doxorubicin. 76 male mice, 8 weeks old on arrival, were obtained from Janvier Labs, Le Genest St Isle, 53941 St Berthevin, France. Each animal was identified with an electronic chip. The powder of compounds I-C, I-J and I-K (180 mg/kg) was dissolved in the carrier (the solution was used at ambient temperature for a maximum of 1 day). […] Doxorubicin was prepared at 2 mg/mL and the administration volume was 10 mL/kg. The control group received an injection of saline solution. Each group comprises 14 to 24 mice. As indicated in the regulations relating to non-clinical laboratory studies, the groups of test and control animals have been kept under identical conditions. The envisaged duration of the study was 11 days. […] The treatment with compounds I-C, I-J and I-K was initiated after 5 days before the injection of DOX, once per day from Day 5 to Day 0. The mice were treated i.p with compounds I-C, I-J and I-K 30 minutes before the injection of DOX. The mice were treated i.p with compounds I-C, I-J and I-K during the duration of the experiment (J0 to J5) once per day. […] In particular, the heart rate was evaluated during the ECG: […]

[2] = test system: ischaemia-reperfusion rat; test: Arrhythmia induced by ischaemia-reperfusion in anaesthetised rats; format: in vivo; settings: for ventricular fibrillation during the ischaemia (effect in words) / ventricular tachycardia during the ischaemia (effect in words) / incidence of ventricular tachycardia during reperfusion (effect in words) / duration of ventricular tachycardia during reperfusion (effect in words) / ventricular fibrillation during reperfusion (effect in words) / mortality during the reperfusion period (effect in words): iv; for ventricular fibrillation during the ischaemia (effect in words) / ventricular tachycardia during the ischaemia (effect in words): I-C 185 mg/kg 30 min before, cariporide 0.3 mg/kg 5 min before ischaemia; for incidence of ventricular tachycardia during reperfusion (effect in words) / duration of ventricular tachycardia during reperfusion (effect in words) / ventricular fibrillation during reperfusion (effect in words) / mortality during the reperfusion period (effect in words): I-C 185 mg/kg, cariporide 0.3 mg/kg; for duration of ventricular tachycardia during reperfusion (effect in words) / ventricular fibrillation during reperfusion (effect in words): vs carrier; for mortality during the reperfusion period (effect in words): carrier group 25% death
Protocol: Arrhythmias were obtained in an acute model of ischaemia-reperfusion in rats.
The rats were first anaesthetised, then intubated and mechanically ventilated, before being prepared for surgery.
Catheters were then placed in the carotid artery in order to measure the arterial pressure and in the caudal vein for the perfusion of drugs. The arterial catheter consists in a catheter filled with fluid which sends the pressure to a transducer located nearby. The mean arterial pressure is calculated electronically and recorded continuously.
A three-lead electrocardiogram (ECG) was recorded throughout the procedure by means of needle electrodes attached to the limbs.
The modifications to the ECG, mean arterial pressure (MAP) and the heart rate were measured before and during the occlusion-reperfusion period. The definitions of the arrhythmias are based on those described in the Lambeth conventions (Walker and al., The Lambeth conventions: guidelines for the study of arrhythmias in ischaemia infarction, and reperfusion, Cardiovascular Research, 1988, 22(7), 447-455). The ectopic activity has been categorized as a single ventricular premature beat (VPB), a ventricular tachycardia (VT, four or more consecutive VPBs) or a ventricular fibrillation (VF, inability to distinguish individual QRS complexes and to measure the rate). The arterial pressure traces were referred to in order to confirm which type of ectopic activity was produced, in particular to distinguish between polymorphic VT and VF. When the first is produced, the arterial pressure is generally still pulsatile whereas with VF, the arterial pressure falls rapidly towards zero and is no longer pulsatile. The VF can be sustained or can spontaneously return to a normal sinusoidal rhythm in rats. In all the experiments, the incidences of TV and VF as well as the duration of the ventricular tachycardia were noted.
The heart was then exposed by a left intercostal thoracotomy. After opening the pericardium, a 6.0 silk stitch was placed around the left coronary artery on a polypropylene tube in order to form a collar. The hearts were subjected to an ischaemia for 7 minutes by tightening the suture 5 minutes after the treatment. Finally, the collar occluder was released in order to allow the reperfusion of the myocardial tissue for 10 minutes. At the end of the reperfusion period, the rats were euthanised by cervical dislocation while still anaesthetised.
The means± the standard error on the mean are presented.
The statistical analysis was carried out using the GraphPad Prism 5 software. The Fisher test was used to analyse the differences between the incidences of arrhythmias, while the chi-squared test was used to compare the incidence of mortality. The Kruskall-Wallis test was used to analyse the differences between the duration of the tachycardia and the ventricular fibrillations and the difference in the number of ventricular fibrillations.
The rats were treated by the intravenous route with a saline solution, a compound of formula I-C at 185 mg/kg (30 minutes before the ischaemia) or cariporide at 0.3 mg/kg (5 minutes before the ischaemia). The animals were subjected to a 7-minute ischaemia and a 10-minute reperfusion. Throughout the experimental phase, the arterial pressure and ECG profiles were recorded continuously. Blood was sampled 5 minutes after the end of the reperfusion and the heart was weighed.

infarction = settings: ischaemia of at least 30 minutes and reperfusion of at least 60 minutes; cited from earlier work
[3] = DOX 20 mg/kg i.p. + compound 180 mg/kg i.p. once per day
[4] = 185 mg/kg iv 30 minutes before ischaemia, 7-minute ischaemia
[5] = 185 mg/kg iv, 10-minute reperfusion

Row | Structure (SMILES) | heart rate 5 days after the injection of DOX (effect in words) [1, 3] | ventricular fibrillation during the ischaemia (effect in words) [2] | ventricular tachycardia during the ischaemia (effect in words) [2] | incidence of ventricular tachycardia during reperfusion (effect in words) ([2]; 10-minute reperfusion) | duration of ventricular tachycardia during reperfusion (effect in words) ([2]; 10-minute reperfusion) | ventricular fibrillation during reperfusion (effect in words) ([2]; 10-minute reperfusion) | mortality during the reperfusion period (effect in words) [2] | other results
1 | NC(=O)c1ccc[n+]([C@H]2O[C@H](COP(=O)([O-])OP(=O)([O-])OC[C@H]3O[C@H]([n+]4cccc(C(N)=O)c4)[C@H](O)[C@@H]3O)[C@@H](O)[C@H]2O)c1 [I-K] | increase in heart rates; also recorded: significantly attenuated |  |  |  |  |  |  | 
2 | NC(=O)c1ccc[n+]([C@@H]2O[C@H](COP(=O)([O-])O)[C@@H](O)[C@H]2O)c1 [I-C] | increase in heart rates; also recorded: significantly attenuated | remove the ventricular fibrillation | significantly reduce the incidence and duration | no effect | appeared to reduce the duration | tendency to reduce the incidence | removed mortality | duration of ventricular tachycardia during the ischaemia [2, 4]: 0.2 ± 0.2 s; incidence of ventricular tachycardia during the ischaemia [2, 4]: approximately 9%; duration of ventricular fibrillation during reperfusion [2, 5]: 4.0±2.3 % of the duration of the reperfusion; incidence of ventricular fibrillation during reperfusion [2, 5]: approximately 55%; number of ventricular fibrillations during reperfusion [2, 5]: approximately one
3 | NC(=O)c1ccc[n+]([C@@H]2O[C@H](COP(=O)([O-])O)[C@@H](O)[C@H]2O)c1 [NMN, Nicotinamide Mononucleotide] |  |  |  |  |  |  |  | protective effect against infarction (infarction): protects the heart
4 | NC(=O)c1ccc[n+]([C@@H]2O[C@H](COP(=O)([O-])OP(=O)([O-])OC[C@H]3O[C@H]([n+]4cccc(C(N)=O)c4)[C@H](O)[C@@H]3O)[C@@H](O)[C@H]2O)c1 [I-J] | increase in heart rates; also recorded: significantly attenuated |  |  |  |  |  |  | heart rate 5 days after the injection of DOX [1, 3]: 470.1±18.8 bpm
5 | CC(C)c1ccc(C(=O)NC(=N)N)cc1S(C)(=O)=O [Cariporide, reference compound] |  | removed | removed | no beneficial effect | tendency to be shorter | removed | removed | 
6 | COc1cccc2c1C(=O)c1c(O)c3c(c(O)c1C2=O)C[C@@](O)(C(=O)CO)C[C@@H]3O[C@H]1C[C@H](N)[C@H](O)[C@H](C)O1 [doxorubicin, reference compound] |  |  |  |  |  |  |  | heart rate 5 days after the injection of DOX ([1]; DOX 20 mg/kg i.p. + carrier, control mice 525.6±19.8 bpm): 365.1±23.9 bpm
